Like-named read-outs stand apart in the source and are kept apart here.
Key:
Assay type in all cases: in vivo, human
Herpes zoster = conditions: person, 50 μg/gr cream
Experimental: (§1) The method of the invention has been carried out with respect to a number of skin disorders. The patients were treated with one of two peptides, each at a concentration of 50 μg/gr cream (unless otherwise indicated):
(§2) The cream was manufactured by Amiga LTD, Israel, and contains the following components:
1. A person was diagnosed with Herpes zoster (shingles), which appeared as a painful, circumferential rash in the abdominal area. The patient had been on antibiotics, with no improvement.
2. A person was diagnosed with Herpes zoster, which appeared as painful lesions with skin edema on the mid back area, appearing several times a year. […] Decrease in the skin rash and the degree of the sore and swelling and a shortening of the time of recovery (healing).

Varicella = conditions: person, 50 μg/gr cream
Experimental: as §1, §2
3. A person was diagnosed with severe Varicella, which appeared all over the body. The patient had severe itching and skin peeling. No commercial remedy helped. Initially, ZEP3 was topically applied to the hand, with improvement and relief within 24 hours. […] After 10 days, there was no sign of the disease nor were there any future complications.

vaginal herpes = conditions: female over 40, lesions on outer genital area; 50 μg/gr cream daily
Experimental: as §1, §2
4. A person over 40 suffered from advance vaginal herpes, with numerous lesions on the outer genital area and pronounced itching and swelling.

Herpes simplex = tested on: Herpes simplex
Experimental: as §1, §2
5. A person suffered for many years from Herpes simplex on the neck, with no relief from commercial remedies. ZEP3 was applied topically once a day to the lesions. • Results: relief in itching and skin rash within 10-20 min.
6. person two was diagnosed with Herpes simplex.
7. person one was diagnosed with Herpes simplex.
8. person four suffered from Herpes simplex from childhood.
9. A person suffered from Herpes simplex lesions on the lips and face. […] 1-2 applications cause the lesions to disappear.
10. A person suffered from Herpes simplex on the lips, mainly when under pressure. […] The blisters disappeared after 24 hours.
11. A person suffered from Herpes simplex on the lips. ZEP3 (500 μg/gr cream) was topically applied several times during the day on the wound. • Results: the person felt relief after several minutes. The itching and redness lessened immediately and the wound disappeared after 36 hours.
12. 7 subjects suffering from Herpes simplex were treated with ZEP3.
13. A person suffered from Herpes simplex lesions on the lips.
14. A person has a festering Herpes simplex lesion. Generally, 10 days are required for recuperation.
15. A person suffered intermittingly from Herpes simplex on the lips, with blisters.

flea bites = tested on: flea bites
Experimental: as §1, §2
1. person two was bitten by fleas on various occasions, resulting in an itching sensation. […] The ointment was reapplied after 6 hours.
2. person one who is very sensitive to flea bites was bitten by fleas, resulting in an itching sensation. […] The ointment should be reapplied after 12 hours.

mosquito bites = tested on: mosquito bites
Experimental: as §1, §2
8. males and four females suffered from mosquito bites. […]
9. 3 subjects suffering from mosquito bites were treated with ZEP3.

burns = tested on: burns
Experimental: as §1, §2
1. A person was lightly burned on the back of the hand which touched a very hot object. ZEP4 was immediately applied to the burn site. • Results: the burn mark disappeared within 1 hour. No additional treatments were necessary.
2. A person was severely burned by boiling water on the palm of the hand. […] At the end of 2 weeks there was no sign of the burn, nor thereafter.
3. person two was lightly burned on their finger from boiling oil. […] No further treatments were necessary.
5. A person was burnt on their hand from an oven. […] The burn took on a light brown color.
6. 4 light burn cases, three from touching a hot surface and one from a chemical substance in a laboratory, were treated with ZEP3.
8. person three with irritated skin on the hand due to the rubbing of a watch band. The irritated skin came into contact with a chemical substance (used as a disinfectant). A severe redness developed similar to a burn, and a strong itching feeing. […] D. Oral Cavity

radiation burns = conditions: person two after mastectomy, severe radiation burns; 500 μg/gr cream several times per day
Experimental: as §1, §2
4. A person with breast cancer received radiation treatment. The person suffered from radiation burns in a large skin area with blisters and open wounds. ZEP4 was applied directly to the wounds over a period of 12 days, 1-2 times per day. • Results: an immediate (˜1 minute) ease in the itching and burning sensation.
7. person two with breast cancer after mastectomy received radiation treatment. The person suffered from severe radiation burns.

psoriasis = conditions: person
Experimental: as §1, §2
1. A person suffered from intermittent psoriasis on their head over many years. […] The patient believes that the frequency of the outbreaks has been reduced.
2. A person suffered from psoriasis on the hands. […] The patient believes that a 20% improvement has occurred over 2 weeks.
3. A person suffered from psoriasis in the anus.
4. A person suffered from extensive psoriasis at various locations. ZEP3 (500 μg/gr cream) was applied to the sores as needed. • Results: the itching ceased within 12 hours.
5. A person suffered from chronic psoriasis on the elbow.
6. A person suffered from severe psoriasis at various locations. They regularly went for treatments to the Dead Sea in Israel.

itching = conditions: person
Experimental: as §1, §2
1. A person suffered from a strong itching sensation on the skin all over the body for no apparent reason.
2. A person suffered from a red rash and itching sensation on their breast. ZEP4 (500 μg/gr cream) was applied twice in a period of 2 hours. • Results: relief from itching within 10 minutes.
3. A person suffered from a strong itching sensation in the lower limbs which sometimes spread to the abdomen and back. […] I. Skin Infection

[1] = abdominal rash, 2-3 times a day
[2] = entire body twice a day for two weeks
[3] = person, lesions on lips and face, 50 μg/gr cream
[4] = person, lips, 500 μg/gr cream several times a day
[5] = person, neck, 50 μg/gr cream once a day
[6] = chronic psoriasis on elbow, 500 μg/gr cream
[7] = intermittent psoriasis on head, 500 μg/gr cream once or twice a day

pGLU-ASN-TRP-LYS-C8 [ZEP3]
clinical outcome (Herpes zoster; [1]): a decrease in the skin redness and the degree of the swelling and itching
time to improvement in the rash (Herpes zoster; [1]): 2 to 10 min
clinical outcome (Herpes zoster; lesions with skin edema on mid back, applied 4-5 times): reduced skin edema and an increase in the intervals between attacks. Decrease in the skin rash and the degree of the sore and swelling and a shortening of the time of recovery (healing)
clinical outcome (Varicella; [2]): shortening the time of recovery (healing)
time to decrease in the skin rash and the degree of the sore and swelling (Varicella; [2]): 10 to 20 min
time until no sign of the disease (Varicella; [2]): 10 days
time to improvement and relief (Varicella; initial application to the hand): ≤ 24 h
clinical outcome (vaginal herpes): the redness and swelling decreased, and the lesions healed
clinical outcome (Herpes simplex; 7 subjects, 50 μg/gr cream): found to be therapeutic
clinical outcome as compared to treatment with Zovirax® (Herpes simplex; person four, 50 μg/gr cream several times): Rapid drying of the lesion, shrinking of swelling and swift conclusion of the outbreak
recuperation period (Herpes simplex; person, festering lesion, generally 10 days required, 500 μg/gr cream as needed): shortened by half
clinical outcome (Herpes simplex; [3]): the lesions now appear only infrequently
number of applications that cause the lesions to disappear (Herpes simplex; [3]): 1-2 applications
clinical outcome (Herpes simplex; person, lips with blisters, 500 μg/gr cream as needed): immediate relief; the blisters stopped developing and disappeared after several hours
clinical outcome (Herpes simplex; [4]): felt relief after several minutes. The itching and redness lessened immediately
time until wound disappeared (Herpes simplex; [4]): 36 h
clinical outcome (Herpes simplex; [5]): The lesions disappeared and did not return during the last 5 years
time to relief in itching and skin rash (Herpes simplex; [5]): 10 to 20 min
clinical outcome (Herpes simplex; person, pricking sensation on upper lip, 500 μg/gr cream as needed): the pricking sensation ceased and Herpes lesions did not develop
clinical outcome (flea bites; person one very sensitive to flea bites, 50 μg/gr cream): almost immediate cessation of the itching sensation
clinical outcome (flea bites; person two, 50 μg/gr cream several times to bite location): immediate cessation of the itching sensation
clinical outcome (mosquito bites; 3 subjects, 50 μg/gr cream): found to be therapeutic both for the itching and for the healing
clinical outcome (mosquito bites; two males and four females, 30-57 years old, (500 μg/gr cream) as needed): an immediate relief from the itching sensation was felt
clinical outcome (burns; 4 light burn cases (three hot surface, one chemical substance), 50 μg/gr cream): found to be therapeutic both for the pain and for the healing
clinical outcome (burns; person three, irritated skin on hand contacted a disinfectant, burn-like redness and itching, ZEP4 and ZEP3 each 500 μg/gr cream): immediate relief from the redness and itching
clinical outcome (radiation burns): felt immediate relief
clinical outcome (psoriasis; [6]): the flaking of the skin disappeared and the normal skin appearance returned
time until itching terminated (psoriasis; [6]): 2 h
time until itching ceased (psoriasis; extensive psoriasis, 500 μg/gr cream as needed): ≤ 12 h
clinical outcome (psoriasis; [7]): the disease disappeared
time to relief (psoriasis; [7]): 10 to 20 min
time until relief is felt (psoriasis; psoriasis in the anus, (500 μg/gr cream) once a day): 4 days
clinical outcome (psoriasis; psoriasis in the anus, (500 μg/gr cream) once a day, stopped several days, repeated for 4 days): the psoriasis disappeared
clinical outcome (psoriasis; psoriasis on hands, 500 μg/gr cream once a day): feels relief; the skin is pleasant feeling and not itchy
improvement as believed by the patient (psoriasis; psoriasis on hands, 500 μg/gr cream once a day, over 2 weeks): 20%
clinical outcome (itching; strong itching all over the body, 500 μg/gr cream a number of times): immediate relief from itching, which ceased
clinical outcome (itching; strong itching in lower limbs, 500 μg/gr cream as needed): immediate relief
